Among the data in US10577362B2, “Substituted 2, 4-diamino-quinoline derivatives for use in the treatment of proliferative diseases” (GENOSCIENCE PHARMA, priority 2016, dated 2020) are viability and EC50 values, retold here.

The structures appear in SMILES notation.

Test [1] deals with MOLM-14 (acute myeloid leukemia) cell line. The test is described as follows: CellTiter-Glo luminescent cell viability assay, MOLM-14. Type of test: cell-based, human. The note with it: Homo sapiens; for viability at 4 µM: MOLM-14, compound at 4 μM; for viability at 4 µM / viability at 10 µM: 72 h; for viability at 10 µM: MOLM-14, compound at 10 μM; for EC50: MOLM-14 cell line, 72 h incubation, CellTiter-Glo, read-out: EC50, growth inhibition of MOLM-14. The procedure, abridged: (§1)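 Adherent lines plated overnight, MOLM-14 (suspension) 1 h before dosing, in medium with 10% FBS at 37 °C, 5% CO2. Compounds added at varying concentrations for 72 h; CellTiter-Glo luminescence read, EC50 as dose reducing signal to 50% of diluent-treated cells, at least duplicate points.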
For orientation: ATP-based viability assays read luminescence as a measure of living cells.

Test [2] deals with A375 (malignant melanoma) cell line. The test is described as follows: CellTiter-Glo luminescent cell viability assay, A375. Type of test: cell-based, human. The note with it: Homo sapiens, A-375; for viability at 4 µM: A375, compound at 4 μM; for viability at 4 µM / viability at 10 µM: 72 h; for viability at 10 µM: A375, compound at 10 μM; for EC50: A375 cell line, 72 h incubation, CellTiter-Glo, read-out: EC50, growth inhibition of A375. In outline:
(§2)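 72 h compound exposure, 37 °C, 5% CO2, 10% FBS medium; ATP luminescence read after 30 min RT equilibration. Viability as % of H2O/DMSO diluent control; EC50 = dose giving 50% of control signal. Duplicate points minimum.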

The subject of test [3] is HCT-116 (colorectal carcinoma) cell line. Nature of the test: CellTiter-Glo luminescent cell viability assay, HCT-116. Type of test: cell-based, human. The note with it: Homo sapiens; for viability at 4 µM: HCT-116, compound at 4 μM; for viability at 4 µM / viability at 10 µM: 72 h; for viability at 10 µM: HCT-116, compound at 10 μM; for EC50: HCT-116 cell line, 72 h incubation, CellTiter-Glo, read-out: EC50, growth inhibition of HCT-116. In outline:
as §2

Test [4] has as its system Huh7 (hepatocellular carcinoma) cell line. Nature of the test: CellTiter-Glo luminescent cell viability assay, Huh7. Type of test: cell-based, human. The note with it: Homo sapiens, Huh-7; for viability at 4 µM: Huh7, compound at 4 μM; for viability at 4 µM / viability at 10 µM: 72 h; for viability at 10 µM: Huh7, compound at 10 μM; for EC50: Huh7 cell line, 72 h incubation, CellTiter-Glo, read-out: EC50, growth inhibition of Huh7. The procedure, abridged: as §1

Test [5] deals with 786-O (renal adenocarcinoma) cell line. Nature of the test: CellTiter-Glo luminescent cell viability assay, 786-O. Format: cell-based, human. The note with it: Homo sapiens, 786-0; for EC50: 786-O cell line, 72 h incubation, CellTiter-Glo, read-out: EC50, growth inhibition of 786-O; for viability at 4 µM / viability at 10 µM: 786-O, 72 h; for viability at 4 µM: compound at 4 μM; for viability at 10 µM: compound at 10 μM. In outline:
as §2

In test [6] the test system is HepG2 (hepatocellular carcinoma) cell line. The test is described as follows: CellTiter-Glo luminescent cell viability assay, HepG2. Format: cell-based, human. The settings on record: Homo sapiens; for viability at 4 µM / viability at 10 µM: HepG2, HepG, 72 h; for viability at 4 µM: compound at 4 μM; for viability at 10 µM: compound at 10 μM; for EC50: HepG2 cell line, 72 h incubation, CellTiter-Glo, read-out: EC50, growth inhibition of HepG2. The procedure, abridged:
as §1

Test [7] deals with PANC-1 (prancreatic carcinoma) cell line. Nature of the test: CellTiter-Glo luminescent cell viability assay, PANC-1. Format: cell-based. The note with it: Homo sapiens; for viability at 4 µM: PANC-1, 4 μM; for viability at 4 µM / viability at 10 µM: 72 h, % of signal of diluent-treated cultures; for viability at 10 µM: PANC-1, 10 μM; for EC50: PANC-1 cell line, 72 h incubation, CellTiter-Glo, read-out: EC50 (growth inhibition assay of PANC-1 cell line). In outline:
as §1

By viability is commonly meant a read-out of living cells in per cent, often relative to untreated cells. For orientation: EC50 means the concentration that produces a half-maximal response.

In the case of `N#Cc1c(NCc2ccc(Cl)cc2)nc2ccccc2c1N1CCC(N)CC1` [Compound 3170CN, 2-(4-chlorobenzylamino)-3-cyano-4-(4-aminopiperidin-1-yl)quinoline], the viability at 4 µM is 84.2% in test [1]; 0.5% in test [2]; 0.7% in test [3]; 79.4% in test [4]; 36.5% in test [5]; 0.6% in test [6]. For the same compound, in test [7], the viability at 4 µM is 89.6%. In addition, the viability at 10 µM came out at 0.4% in test [1]; 0.3% in test [2]; 0.2% in test [3]; 0.4% in test [4]; 0.4% in test [5]; 0.3% in test [6]. Moreover, the viability at 10 µM in test [7] worked out at 0.6%. Also, the EC50 in test [1], in test [2], in test [3], in test [4], in test [5] and in test [6] was 0.5 to 5 µM each time. Moreover, the EC50 in test [7] lay in the range of 5 to 10 µM.

On to `N#Cc1c(NCc2ccc(Cl)cc2)nc2ccccc2c1N1CCCC(N)C1` (stereo not shown) [Compound 3156CN, 2-(4-chlorobenzylamino)-3-cyano-4-(3-aminopiperidin-1-yl)quinoline], for which the viability at 4 µM in test [1] was 92.8%; in test [2] it was 10%; in test [3], 52%; in test [4], 83%; in test [5], 77.8%; in test [6], 32.6%. Moreover, the viability at 4 µM in test [7] is 102%. Moreover, the viability at 10 µM in test [1] was determined as 0.6%; in test [2] it was 0.4%; in test [3] it was 0.5%; in test [4], 0.6%; in test [5], 0.6%; in test [6], 0.5%. Also, in test [7], the viability at 10 µM came out at 0.9%. Further, the EC50 was in the range of 5 to 10 µM in test [1]; 0.5 to 5 µM in test [2]; 0.5 to 5 µM in test [3]; 0.5 to 5 µM in test [4]; 0.5 to 5 µM in test [5]; 0.5 to 5 µM in test [6]. In addition, the EC50 in test [7] fell in the range of 5 to 10 µM.

Consider `CNC1CCN(c2c(C#N)c(NCc3ccc(Cl)cc3)nc3ccccc23)CC1` [Compound 3172CN, 2-(4-chlorobenzylamino)-3-cyano-4-[4-(methylamino)piperidin-1-yl]quinoline], for which the viability at 4 µM amounted to 0.5% in test [1]; 0.4% in test [2]; 0.2% in test [3]; 30.7% in test [4]; 0.5% in test [5]; 0.5% in test [6]. Besides, the viability at 4 µM in test [7] came to 56.4%. The viability at 10 µM in test [1] amounted to 0.4%; in test [2], 0.3%; in test [3], 0.1%; in test [4], 0.4%; in test [5], 0.3%; in test [6] it was 0.4%. The viability at 10 µM in test [7] turned out to be 0.5%. Besides, the EC50 in test [1], in test [2], in test [3], in test [4], in test [5] and in test [6] was 0.5 to 5 µM throughout. The EC50 in test [7] lay in the range of 5 to 10 µM.

Take `Cc1nc(Nc2nc3ccccc3c(N3CCC(NC(C)(C)C)CC3)c2C#N)n(C)n1` [Compound 3274CN, 2-[(1,3-dimethyl-1H-1,2,4-triazol-5-yl)amino]-3-cyano-4-[4-(tert-butylamino)piperidin-1-yl]quinoline]: the viability at 4 µM in test [1] worked out at 91.3%; in test [2], 84.7%; in test [3] it was 73.3%; in test [4], 96.2%; in test [5], 106%; in test [6], 63.4%. Further, the viability at 4 µM in test [7] was determined as 96.7%. For the same compound, the viability at 10 µM in test [1] is 78.2%; in test [2], 69.2%; in test [3] it was 49.5%; in test [4], 75%; in test [5] it was 83.4%; in test [6], 55.2%. The viability at 10 µM in test [7] is 89.9%.

Regarding `CC(C)(C)NC1CCN(c2c(C#N)c(Nc3cnccn3)nc3ccccc23)CC1` [Compound 3284CN, 2-(pyrazin-2-ylamino)-3-cyano-4-[4-(tertbutylamino)piperidin-1-yl]quinoline], the viability at 4 µM came to 102% in test [1]; 88.3% in test [2]; 83.4% in test [3]; 95.3% in test [4]; 89.8% in test [5]; 90% in test [6]. Further, the viability at 4 µM in test [7] was 96.3%. Also, the viability at 10 µM turned out to be 78.3% in test [1]; 64.9% in test [2]; 27.4% in test [3]; 79.2% in test [4]; 61.9% in test [5]; 68.4% in test [6]. The viability at 10 µM in test [7] turned out to be 69.4%.

As for `CC(C)(C)NC1CCN(c2c(C#N)c(NCc3ccc(C(F)(F)F)cc3)nc3ccccc23)CC1` [Compound 3292CN, 2-[4-(trifluoromethyl)benzylamino]-3-cyano-4-[4-(tert-butylamino)piperidin-1-yl]quinoline], the viability at 4 µM in test [1] was found to be 54.7%; in test [2], 0.3%; in test [3], 0.3%; in test [4], 10.2%; in test [5], 0.5%; in test [6], 20.5%. Besides, the viability at 4 µM in test [7] turned out to be 75.6%. Further, the viability at 10 µM in test [1] is 0.3%; in test [2], 0.2%; in test [3], 0.1%; in test [4] it was 0.2%; in test [5], 0.2%; in test [6], 0.2%. The viability at 10 µM in test [7] was found to be 25%. For the same compound, the EC50 was in the range of 5 to 10 µM in test [1]; 0.5 to 5 µM in test [2]; 0.5 to 5 µM in test [3]; 0.5 to 5 µM in test [4]; 0.5 to 5 µM in test [5]; 0.5 to 5 µM in test [6]. Moreover, the EC50 in test [7] was in the range of 5 to 10 µM.

For `N#Cc1c(NCc2ccc(Cl)cc2)nc2ccccc2c1N1CCC(N2CCCC2)CC1` [Compound 200CN, 2-(4-chlorobenzylamino)-3-cyano-4-[4-(pyrrolidin-1-yl)piperidin-1-yl]quinoline], the viability at 4 µM in test [1] was 92.7%; in test [2], 65.9%; in test [3] it was 78.1%; in test [4] it was 83.1%; in test [5], 74.8%; in test [6] it was 90.8%. In addition, the viability at 4 µM in test [7] amounted to 98.8%. In addition, the viability at 10 µM stood at 0.4% in test [1]; 0.4% in test [2]; 0.5% in test [3]; 0.7% in test [4]; 2.2% in test [5]; 0.9% in test [6]. Further, in test [7], the viability at 10 µM is 60.8%. In addition, the EC50 is 0.5 to 5 µM in test [1]; 0.5 to 5 µM in test [2]; 0.5 to 5 µM in test [3]; 5 to 10 µM in test [4]; 0.5 to 5 µM in test [5]; 5 to 10 µM in test [6]. Also, the EC50 in test [7] is 5 to 10 µM.
